# Assays:
# [1] = tested on: multiple myeloma cell line U266B1; assay: U266 Cell Viability Assay; assay type: cell-based, human; details: Homo sapiens, U-266, 48 h, U266B1 cells, Celltiter-Glo
# Outline: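 U266B1 multiple myeloma cells in RPMI 1640/10% FBS were treated with compound dilutions for 48 h at 37 °C, 5% CO2. Viability was measured by CellTiter-Glo luminescence; compounds drawn without stereochemistry were tested as stereoisomer mixtures.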
# [2] = tested on: HER3-ss+4aa/Gaussia Luciferase; assay: Dox-Induced Her3-ss-Gluc Assay; assay type: cell-based; details: 24 hr Dox induction; 293FRT/TO cells; read-out: 24 hr Dox Inducible Her3(ss + 4)Gluc 293FRT/TO: Mean IC50
# Outline: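 Stable Flp-In 293 T-REx cells carried a doxycycline-inducible HER3 signal sequence (+4 aa) fused to Gaussia luciferase. Cells were plated the day before the assay. Compound dilutions in DMSO/media containing doxycycline were then added, and plates were incubated at 37 °C, 5% CO2.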
# [3] = Liver Microsome Stability Assay (monkey); details: monkey liver microsomes, with NADPH, 1.0 uM compound
# Procedure: (§1) Stability of a compound was assessed in the presence of liver microsomes from various sources—mouse, rat, monkey and human liver microsomes. 1.0 uM compound, 0.4% DMSO in 0.1 M Potassium Phosphate with 1.0 mg/mL liver microsomes, were incubated at 37° C. with or without 1 mM NADPH. The samples were quenched at 0, and 30 minutes.
# [4] = tested on: TNFα-FL/Gaussia Luciferase; assay: Dox Induced TNFα-FL-Gluc Assay; assay type: cell-based; details: for IC50: 24 hr Dox induction, 293FRT/TO cells, read-out: 24 hr Dox Inducible TNFaFLGluc 293FRT/TO: Mean IC50; for 24 hr Dox Inducible TNFaFLGluc 293FRT/TO: TNF/PD1: ratio of TNFaFLGluc IC50 to PD1ssGluc IC50
# Outline: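 Flp-In 293 T-REx cells stably carrying doxycycline-inducible full-length TNFα (aa 1-233) fused to Gaussia luciferase. Plated the day before, then treated with compound dilutions in doxycycline-containing medium at 37° C, 5% CO2.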
# [5] = tested on: IL-2-FL/Gaussia Luciferase; assay: Dox Induced IL2-FL-Gluc Assay; assay type: cell-based; details: for IC50: 24 hr Dox induction, 293FRT/TO cells, read-out: 24 hr Dox Inducible IL2FLGluc 293FRT/TO: Mean IC50; for 24 hr Dox Inducible IL2FLGluc 293FRT/TO: IL2/PD1: ratio of IL2FLGluc IC50 to PD1ssGluc IC50
# Outline: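 Stable Flp-In 293 T-REx cells carrying doxycycline-inducible full-length IL-2 (aa 1-153) fused to Gaussia luciferase, plated the day before assay. Compound dilutions added in medium containing doxycycline, incubated at 37 °C, 5% CO2. Undefined stereocentres mean data refer to stereoisomer mixtures.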
# [6] = Liver Microsome Stability Assay (mouse); details: mouse liver microsomes, with NADPH, 1.0 uM compound
# Procedure: as §1
# [7] = Liver Microsome Stability Assay (rat); details: rat liver microsomes, with NADPH, 1.0 uM compound
# Procedure: as §1
# [8] = tested on: PD1-ss+10aa/Gaussia Luciferase; assay: Dox-Induced PD1-ss-Gluc Assay; assay type: cell-based; details: 24 hr Dox induction; 293FRT/TO cells; read-out: 24 hr Dox Inducible PD1ssGluc 293FRT/TO: Mean IC50
# Outline: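 The cell line was made by transfecting Flp-In 293 T-REx cells with a PD1 signal sequence+10aa–Gaussia luciferase fusion under T-REx control and selecting with hygromycin and blasticidin. Cells were seeded, and next day compound plus doxycycline was added at 37 °C, 5% CO2.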
# [9] = Liver Microsome Stability Assay (human); details: human liver microsomes, with NADPH, 1.0 uM compound
# Procedure: as §1
# [10] = tested on: multiple myeloma cell line NCI-H929; assay: H929 Cell Viability Assay; assay type: cell-based, human; details: Homo sapiens, NCI-H929, 48 h, NCI-H929 cells, Celltiter-Glo
# Outline: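 NCI-H929 cells in RPMI 1640 with 10% FBS were treated with compound dilutions for 48 h at 37° C, 5% CO2. Viability was read by CellTiter-Glo luminescence. Undefined stereocentres denote stereoisomer mixtures.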
Compound,EC50 [1],IC50 [2],Liver Microsome Stability (Multiple Species): Monkey - % Remaining after 30 min w/NADPH [3],IC50 [4],IC50 [5],Liver Microsome Stability (Multiple Species): Mouse - % Remaining after 30 min w/NADPH [6],Liver Microsome Stability (Multiple Species): Rat - % Remaining after 30 min w/NADPH [7],IC50 [8],Liver Microsome Stability (Multiple Species): Human - % Remaining after 30 min w/NADPH [9],EC50 [10],24 hr Dox Inducible TNFaFLGluc 293FRT/TO: TNF/PD1 [4],24 hr Dox Inducible IL2FLGluc 293FRT/TO: IL2/PD1 [5]
"CC(=O)N[C@@H](C)c1ccc(N2CCC[C@@H]2c2csc(NC(=O)c3cccn3Cc3ccnc(F)c3)n2)cc1 [Compound A69, N-(4-((R)-1-(4-((S)-1-acetamidoethyl)phenyl)pyrrolidin-2-yl)thiazol-2-yl)-1-((2-fluoropyridin-4-yl)methyl)-1H-pyrrole-2-carboxamide]",> 25000 nM,60.4 nM,0.47%,330 nM,116 nM,12.1%,35%,52 nM,1.43%,3180 nM,6.35,2.2
"CC(=O)N[C@@H](C)c1ccc(N2CCC[C@@H]2c2csc(NC(=O)c3cccn3Cc3ccncc3)n2)cc1 [Compound A73, N-(4-((R)-1-(4-((S)-1-acetamidoethyl)phenyl)pyrrolidin-2-yl)thiazol-2-yl)-1-(pyridin-4-ylmethyl)-1H-pyrrole-2-carboxamide]",> 25000 nM,23.6 nM,0.08%,350 nM,88.5 nM,0.14%,15%,26.6 nM,0.1%,3750 nM,13.2,3.3
"C[C@H](N)c1ccc(N2CCC[C@@H]2c2csc(NC(=O)c3cccn3Cc3ccnc(F)c3)n2)cc1 [Compound A74, N-(4-((R)-1-(4-((S)-1-aminoethyl)phenyl)pyrrolidin-2-yl)thiazol-2-yl)-1-((2-fluoropyridin-4-yl)methyl)-1H-pyrrole-2-carboxamide]",6130 nM,232 nM,38.5%,2800 nM,367 nM,94.3%,98.3%,118 nM,38.6%,3870 nM,23.7,3.1
"O=C1CCc2cc(N3CCC[C@@H]3c3csc(NC(=O)c4cccn4Cc4ccncc4)n3)ccc2N1 [Compound A75, (R)-N-(4-(1-(2-oxo-1,2,3,4-tetrahydroquinolin-6-yl)pyrrolidin-2-yl)thiazol-2-yl)-1-(pyridin-4-ylmethyl)-1H-pyrrole-2-carboxamide]",> 25000 nM,0.6 nM,0.87%,71 nM,8.11 nM,3.74%,0.05%,2.5 nM,6.4%,251 nM,28.4,3.2
"CN(C)c1cccc(-c2csc(NC(=O)c3cccn3Cc3ccncc3)n2)c1 [Compound A76, N-(4-(3-(dimethylamino)phenyl)thiazol-2-yl)-1-(pyridin-4-ylmethyl)-1H-pyrrole-2-carboxamide]",> 25000 nM,830 nM,1.43%,6660 nM,1510 nM,11%,4.99%,292 nM,2.44%,22400 nM,22.9,5.2

# Further lines, with some results ahead:
EC50 [1],IC50 [2],Liver Microsome Stability (Multiple Species): Monkey - % Remaining after 30 min w/NADPH [3],IC50 [4],IC50 [5],Liver Microsome Stability (Multiple Species): Mouse - % Remaining after 30 min w/NADPH [6],Liver Microsome Stability (Multiple Species): Rat - % Remaining after 30 min w/NADPH [7],IC50 [8],Liver Microsome Stability (Multiple Species): Human - % Remaining after 30 min w/NADPH [9],EC50 [10],Compound,24 hr Dox Inducible TNFaFLGluc 293FRT/TO: TNF/PD1 [4],24 hr Dox Inducible IL2FLGluc 293FRT/TO: IL2/PD1 [5]
> 25000 nM,18.3 nM,0.83%,236 nM,30 nM,23.7%,7.79%,13.2 nM,2.86%,385 nM,"CC(=O)N[C@H](C)c1ccc(N2CCC[C@@H]2c2csc(NC(=O)c3cccn3Cc3ccnc(F)c3)n2)cc1 [Compound A70, N-(4-((R)-1-(4-((R)-1-acetamidoethyl)phenyl)pyrrolidin-2-yl)thiazol-2-yl)-1-((2-fluoropyridin-4-yl)methyl)-1H-pyrrole-2-carboxamide]",18,2.3
7800 nM,148 nM,36.1%,3700 nM,366 nM,95.6%,82.1%,136 nM,51.8%,4410 nM,"C[C@H](N)c1ccc(N2CCC[C@@H]2c2csc(NC(=O)c3cccn3Cc3ccncc3)n2)cc1 [Compound A71, N-(4-((R)-1-(4-((S)-1-aminoethyl)phenyl)pyrrolidin-2-yl)thiazol-2-yl)-1-(pyridin-4-ylmethyl)-1H-pyrrole-2-carboxamide]",27.2,2.7
6550 nM,197 nM,37.8%,2650 nM,316 nM,72.3%,94.1%,141 nM,23.9%,3770 nM,"C[C@@H](N)c1ccc(N2CCC[C@@H]2c2csc(NC(=O)c3cccn3Cc3ccnc(F)c3)n2)cc1 [Compound A72, N-(4-((R)-1-(4-((R)-1-aminoethyl)phenyl)pyrrolidin-2-yl)thiazol-2-yl)-1-((2-fluoropyridin-4-yl)methyl)-1H-pyrrole-2-carboxamide]",18.8,2.2
> 25000 nM,3.62 nM,22.4%,19.1 nM,3.22 nM,79.6%,38.1%,1.84 nM,72.8%,60.1 nM,"CCc1ccc(N2CCC[C@@H]2c2csc(NC(=O)c3cccn3Cc3ccnc(F)c3)n2)cc1 [Compound A77, (R)-N-(4-(1-(4-ethylphenyl)pyrrolidin-2-yl)thiazol-2-yl)-1-((2-fluoropyridin-4-yl)methyl)-1H-pyrrole-2-carboxamide]",10.4,1.8
